The text below walks through data of US11723362B2, “Broad-spectrum synergistic antimicrobial compositions” (The United States of America, as represented by the …, priority 2019, dated 2023).

The first assay concerns S. aureus. As to the kind of experiment: Minimum inhibitory concentration (MIC) in Mueller-Hinton broth, pH 7.4. The class given is cell-based, Staphylococcus aureus.
Details: not given
As for the experimental part: (§1) This example illustrates the preparation of testing parameters for antimicrobial activity of components of the inventive composition and related compositions for comparison. […] Microbes were grown on Mueller-Hinton agar (MHA, Sigma-Aldrich, St. Louis, Mo.) for 7 days until heavy sporulation was present. Spores from two agar plates were captured in sterile phosphate-buffered saline (PBS) using a sterile swab. Spores were enumerated by serial dilution in Dey-Engley neutralizing broth (DEB; Sigma-Aldrich) and spread plating on MHA. A typical spore stock was determined to contain ˜2×10^7 spores/mL. Bacteria were grown in MH broth for 24 h at 37° C., enumerated by plating, and diluted to the desired concentration as indicated.
(§2) To assess the antimicrobial activity of hydroxamic acids and derivatives, the inhibitory properties of commercially available hydroxylamines and hydroxamic acids were compared to their alcohol and carboxylic acid analogues diluted in Mueller-Hinton broth at pH 7.4 (Table 1).
Take `CC(=O)O` [Acetic acid]: the MIC came out at 0.06 wt %.

Turning to `CC(=O)NO` [Acetohydroxamic acid], the MIC amounted to 0.5 wt %.

`O=C(O)c1ccccc1` [Benzoic acid] yielded an MIC of 0.2 wt %.

`OCc1ccccc1` [Benzyl alcohol] showed an MIC of 0.5 wt %.

`CCCCCCCC(=O)O` [Caprylic acid] showed an MIC of 0.5 wt %.

`CCO` [Ethanol] returned an MIC of 10 wt %.

`CO` [Methanol] displayed an MIC of 20 wt %.

For the compound `Cl.ONCc1ccccc1` [N-benzylhydroxylamine HCl], the MIC is 0.5 wt %.

Consider `O=C1CCC(=O)N1O` [N-hydroxysuccinimide], for which the MIC is on record as 0.5 wt %.

For the compound `Cl.NOCc1ccccc1` [O-benzylhydroxylamine HCl], the MIC was found to be 0.2 wt %.

The subject of another assay is P. aeruginosa. Described as above. The class given is cell-based, Pseudomonas aeruginosa.
Details: not given
The procedure: as §1, §2
Guanylhydrazones 7 and 8, which represent a class of broad-spectrum antimicrobials, alone and in combination with hydroxamic acids were evaluated.
On to `CC(=O)O` [Acetic acid], for which the MIC was determined as 0.06 wt %.

As to `CC(=O)NO` [Acetohydroxamic acid], the MIC was 0.5 wt %.

Turning to `O=C(O)c1ccccc1` [Benzoic acid], the MIC turned out to be 0.2 wt %.

On to `OCc1ccccc1` [Benzyl alcohol], for which the MIC came out at 0.2 wt %.

`CCCCCCCC(=O)O` [Caprylic acid]: the MIC amounted to 0.5 wt %.

Regarding `CCO` [Ethanol], the MIC came out at 10 wt %.

As for `CO` [Methanol], the MIC turned out to be 20 wt %.

Regarding `Cl.ONCc1ccccc1` [N-benzylhydroxylamine HCl], the MIC stood at 0.2 wt %.

As for `O=C1CCC(=O)N1O` [N-hydroxysuccinimide], the MIC was 0.5 wt %.

As to `Cl.NOCc1ccccc1` [O-benzylhydroxylamine HCl], the MIC was 0.2 wt %.

A further assay relates to A. brasiliensis. Described as above. The class given is cell-based, Aspergillus brasiliensis. Details: Minimum inhibitory concentration: unit not given here.
Details: not given
As for the experimental part: as §1, §2
For `CC(=O)O` [Acetic acid], the MIC is 0.2 wt %.

`CC(=O)NO` [Acetohydroxamic acid] came in with an MIC of 0.5 wt %.

For `O=C(O)c1ccccc1` [Benzoic acid], the MIC came out at 0.2 wt %.

`OCc1ccccc1` [Benzyl alcohol] had an MIC of 0.5 wt %.

The compound `CCCCCCCC(=O)O` [Caprylic acid] displayed an MIC of 0.5 wt %.

Compound `CCO` [Ethanol] showed an MIC of 0.47 wt %.

In turn, `CO` [Methanol] registered an MIC of 0.5 wt %.

Take `Cl.ONCc1ccccc1` [N-benzylhydroxylamine HCl]: the MIC amounted to 0.2 wt %.

In turn, `O=C1CCC(=O)N1O` [N-hydroxysuccinimide] yielded an MIC of more than 0.5 wt %.

`Cl.NOCc1ccccc1` [O-benzylhydroxylamine HCl] showed an MIC of 0.2 wt %.

The same assay, now with this note: Table 2.
Regarding `CC(C)c1ccc(C(=O)NO)cc1` [4-isopropylbenzhydroxamic acid 5, 4-isopropylbenzhydroxamic acid], the Minimum inhibitory concentration is listed as 0.04.

Take `CCCc1ccc(C(=O)NO)cc1` [4-n-propylbenzhydroxamic acid 4, 4-n-propylbenzhydroxamic acid]: the Minimum inhibitory concentration was found to be 0.02.

For a further assay, the system named is E. coli. The assay is described as above.
Details: not given
The class given is cell-based, Escherichia coli. As for the experimental part:
as §1, §2
Compound `CC(=O)O` [Acetic acid] had an MIC of 0.1 wt %.

Turning to `CC(=O)NO` [Acetohydroxamic acid], the MIC is reported as 0.5 wt %.

Compound `O=C(O)c1ccccc1` [Benzoic acid] gave an MIC of 0.2 wt %.

`OCc1ccccc1` [Benzyl alcohol] registered an MIC of 0.5 wt %.

`CCCCCCCC(=O)O` [Caprylic acid] yielded an MIC of 0.5 wt %.

On to `Cl.ONCc1ccccc1` [N-benzylhydroxylamine HCl], for which the MIC amounted to 0.5 wt %.

For `O=C1CCC(=O)N1O` [N-hydroxysuccinimide], the MIC is listed as more than 0.5 wt %.

`Cl.NOCc1ccccc1` [O-benzylhydroxylamine HCl] had an MIC of 0.2 wt %.

Another assay has as its system C. albicans. Described as above. The class given is cell-based, Candida albicans.
Details: not given
As for the experimental part: as §1, §2
Compound `CC(=O)O` [Acetic acid] registered an MIC of 0.2 wt %.

Compound `CC(=O)NO` [Acetohydroxamic acid] registered an MIC of 0.2 wt %.

In turn, `O=C(O)c1ccccc1` [Benzoic acid] showed an MIC of 0.2 wt %.

`OCc1ccccc1` [Benzyl alcohol] came in with an MIC of 0.5 wt %.

Turning to `CCCCCCCC(=O)O` [Caprylic acid], the MIC stood at 0.5 wt %.

`CCO` [Ethanol] showed an MIC of 10 wt %.

`CO` [Methanol]: the MIC turned out to be 20 wt %.

As to `Cl.ONCc1ccccc1` [N-benzylhydroxylamine HCl], the MIC is reported as 0.5 wt %.

`Cl.NOCc1ccccc1` [O-benzylhydroxylamine HCl] displayed an MIC of 0.5 wt %.

Another assay concerns Aspergillus brasiliensis ATCC 16404. As to the kind of experiment: Fungicidal activity in ionic surfactant hand wash / foamy hand soap base formula (HW). The class given is cell-based. The note with it: HW, pH 7.0; substance alone 0.5%; high loading 10^7 CFU/mL. As for the experimental part: as §1
All test formulas were adjusted to the desired pH using citric acid and/or NaOH. […] All tubes were kept at room temperature (˜21-22° C.) for 3 weeks. About 100 μL of each inoculated foamy hand soap mixture was diluted 1:10 in DEB and 100 μL of this dilution was spread plated on MHA at several time points (e.g. 3 d, 7 d, 13 d, 18 d, and 20 d). Plates were incubated at room temperature for 3-5 days for mold (1-2 days for bacteria) and colonies enumerated.
The preservative activity of a hydroxamic acid/guanylhydrazone combination was compared to other antimicrobial mixtures in an ionic surfactant-containing formula. […] The fungicidal properties of a mixture of benzhydroxamic acid and guanylhydrazone (1+7) was compared to commercial antimicrobials representing different functional classes (Table 3).
Regarding `CCCCCCC(O)CO` (stereo not shown) [Caprylyl Glycol], the “Log Reduction Day 5” value worked out at 0 Log and the “Log Reduction Day 12” value was 1 Log.

Turning to `CCCOC(=O)c1cc(O)c(O)c(O)c1` [Propyl gallate], the “Log Reduction Day 5” value came out at 1 Log and the “Log Reduction Day 12” value came to 1 Log.

Turning to Sorbitan caprylate, the “Log Reduction Day 12” value came out at 0 Log.

Still in this assay, the particulars now being: hand soap formula, pH 7.0; 0.4% hydroxamic acid alone; minimum detection limit 5.0 × 10^1.
`CC(C)c1ccc(C(=O)NO)cc1` [4-isopropylbenzhydroxamic acid 5, 4-isopropylbenzhydroxamic acid]: the “CFU/mL, incubation time 3 d” value is reported as >2.5 × 10^4 CFU/mL; the “CFU/mL, incubation time 7 d” value is 1.0 × 10^4 CFU/mL; the “CFU/mL, incubation time 13 d” value is recorded as 1.0 × 10^2 CFU/mL; the “CFU/mL, incubation time 18 d” value is listed as <5.0 × 10^1 CFU/mL. The “CFU/mL, incubation time 20 d” value is given as <5.0 × 10^1 CFU/mL.

As to `CCCc1ccc(C(=O)NO)cc1` [4-n-propylbenzhydroxamic acid 4, 4-n-propylbenzhydroxamic acid], the “CFU/mL, incubation time 3 d” value was >2.5 × 10^4 CFU/mL; the “CFU/mL, incubation time 7 d” value is reported as >2.2 × 10^4 CFU/mL; the “CFU/mL, incubation time 13 d” value was 5.0 × 10^2 CFU/mL; the “CFU/mL, incubation time 18 d” value was 1.5 × 10^2 CFU/mL. Also, the “CFU/mL, incubation time 20 d” value is given as <5.0 × 10^1 CFU/mL.
